This note sets out measurements from US10676755B2, “Mutated acetohydroxyacid synthase genes in euphorbiaceae and plant material comprising such genes” (priority 2015, dated 2020).

Assay [1] deals with wt cassava AHAS gene in CHI bacterial cells lacking the endogenous AHAS homolog. Kind of assay: bacterial spot test, serially-diluted cells on herbicide plates. Particulars: negative control wt cassava AHAS gene. Type of assay: cell-based, Cassava (Manihot esculenta). As to the method: (§1) Mutations were generated by site-directed mutagenesis (SDM) of the wild-type Cassava AHAS gene 1 and transformed into CHI bacterial cells lacking the endogenous AHAS homolog. Serially-diluted cells were plated onto plates with increasing concentrations of either imazamox (IM) or flumetsulam (TP). Cassava AHAS wt and a canola ALS mutant known to be highly herbicide tolerant were used as negative and positive controls, respectively. Representative set of bacterial spot tests showing the positive and negative controls, some other mutants tested and the W574S mutant. The herbicide concentrations listed on the left-most column correspond to the entire row and columns separate different lines. Each spot test consists of four 1:10 serial dilutions (10-3, 10-4, 10-5 and 10-6) after normalization based on the OD600 of each M9 liquid culture.
Mutations were generated by site-directed mutagenesis (SDM) of the wild-type Cassava AHAS gene 1 and transformed into CHI bacterial cells lacking the endogenous AHAS homolog. Serially-diluted cells were plated onto plates with increasing concentrations of either imazamox (IM) or flumetsulam (TP). Cassava AHAS wt and a canola ALS mutant known to be highly herbicide tolerant were used as negative and positive controls, respectively. […]

Assay [2] concerns cassava AHAS W574L mutant in CHI bacterial cells. Kind of assay: kill curve assay, colonies counted on herbicide plates. The assay is classed as cell-based, Cassava (Manihot esculenta). Particulars: growth is inconsistent. As to the method:
(§2) Mutants were also tested using a “kill curve” assay where equal numbers of cells containing the mutant of interest were plated onto plates with increasing concentrations of herbicide and the number of resulting colonies counted. Kill curve results averaged between three experiments, each with an average of three technical replicates. Error bars are ±one standard deviation of the averaged data. Results are depicted in FIG. 6.
(§3) Mutants were also tested using a “kill curve” assay where equal numbers of cells containing the mutant of interest were plated onto plates with increasing concentrations of herbicide and the number of resulting colonies counted. Kill curve results averaged between three experiments, each with an average of three technical replicates. Error bars are ±one standard deviation of the averaged data. Results are depicted in FIG. 8.

The test system of assay [3] is cassava AHAS W574S mutant in CHI bacterial cells. Kind of assay: bacterial spot test, serially-diluted cells on herbicide plates. The assay is classed as cell-based, Cassava (Manihot esculenta). The note with it: similar to the canola positive control. As to the method:
as §1

Assay [4] has as its system cassava AHAS D376A mutant in CHI bacterial cells. Kind of assay: kill curve assay, colonies counted on herbicide plates. Type of assay: cell-based, Cassava (Manihot esculenta). As to the method:
as §3

The test system of assay [5] is canola ALS mutant in CHI bacterial cells. Kind of assay: bacterial spot test, serially-diluted cells on herbicide plates. Type of assay: cell-based. Particulars: positive control canola ALS mutant. As to the method: as §1
as §1, with “D376A” for “W574S”

For assay [6], the system named is cassava AHAS W574L mutant in CHI bacterial cells. The description is as above. The assay is classed as cell-based, Cassava (Manihot esculenta). Particulars: growth is inconsistent. As to the method:
as §1, with “D376A” for “W574S”

The subject of assay [7] is cassava AHAS D376A mutant in CHI bacterial cells. The assay is described as above. The assay is classed as cell-based, Cassava (Manihot esculenta). On the procedure:
as §1, with “D376A” for “W574S”

The subject of assay [8] is cassava AHAS W574S mutant in CHI bacterial cells. Kind of assay: kill curve assay, colonies counted on herbicide plates. The assay is classed as cell-based, Cassava (Manihot esculenta). On the procedure: as §2

`COCc1cnc(C2=NC(C)(C(C)C)C(=O)N2)c(C(=O)O)c1` (stereo not drawn) [IM, imazamox]: the “growth of cells on plates containing herbicide” value is on record as “failed to grow” in assay [1], “robust growth” in assay [3] and “grew on all concentrations” in assay [5]. The tolerance to herbicide result in assay [2], in assay [4], in assay [6] and in assay [7] was “robust tolerance” in each case. The “herbicide concentration at which all growth ceased” value in assay [5] turned out to be 5 mM.

In the case of `Cc1ccn2nc(S(=O)(=O)Nc3c(F)cccc3F)nc2n1` [TP, flumetsulam], the tolerance to herbicide result in assay [8] is recorded as “enhanced tolerance”; in assay [2] it was “robust tolerance”; in assay [6], “robust tolerance”. Also, the “growth of cells on plates containing herbicide” value in assay [1] was “failed to grow”; in assay [3] it was “robust growth”; in assay [5], “grew on all concentrations”. Further, the “herbicide concentration at which all growth ceased” value in assay [5] is 5 mM.
